This is an account of results in EP0863136B1, “Derivatives of azetidine and pyrrolidine” (Akzo Nobel N.V., priority 1997, dated 1998).

Assay [1] has as its target T1, 5HT2C receptors (Rattus norvegicus, UniProt P08909).
T1 construct: from tissue; host or cells: whole animal (rat), in vivo
T1 sequence (P08909 33-460): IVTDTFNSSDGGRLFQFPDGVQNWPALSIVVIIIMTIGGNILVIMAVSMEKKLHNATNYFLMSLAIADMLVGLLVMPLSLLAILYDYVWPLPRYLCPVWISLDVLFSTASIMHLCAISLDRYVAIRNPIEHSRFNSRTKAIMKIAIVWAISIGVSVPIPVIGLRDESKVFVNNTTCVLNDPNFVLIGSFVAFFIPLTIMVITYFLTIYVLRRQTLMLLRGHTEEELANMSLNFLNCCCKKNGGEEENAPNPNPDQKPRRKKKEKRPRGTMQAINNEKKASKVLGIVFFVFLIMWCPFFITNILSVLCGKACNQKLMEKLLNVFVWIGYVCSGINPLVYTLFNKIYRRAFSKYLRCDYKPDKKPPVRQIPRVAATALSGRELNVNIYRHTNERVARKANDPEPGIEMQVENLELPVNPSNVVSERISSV
Briefly: Penile erection test. Format: in vivo. Conditions: rats. The source says:
This test, carried out according to the protocol of Berendsen et al ["In volvement of 5-HT1C receptors in drug-induced penile erections in rats" - Psychopharmacology 101: 57-61(1990)] enables the potential in vivo activity at 5HT2C receptors to be assessed.

A short description of assay [2]: DRL-72 test. The class given is in vivo. Conditions: rats, operant performance. The source says: This test, carried out according to the protocol of Andrews et al ["Effects of imipramine and mirtazapine on operant performance in rats" - Drug Development Research 32: 58-66 (1994)], gives an indication of potential antidepressant-like activity.
Assay [3] addresses T2, human 5-HT2C (Homo sapiens, UniProt P28335).
T2 construct: expressed in transfected cells; host or cells: 3T3 cells
T2 sequence (P28335 33-458): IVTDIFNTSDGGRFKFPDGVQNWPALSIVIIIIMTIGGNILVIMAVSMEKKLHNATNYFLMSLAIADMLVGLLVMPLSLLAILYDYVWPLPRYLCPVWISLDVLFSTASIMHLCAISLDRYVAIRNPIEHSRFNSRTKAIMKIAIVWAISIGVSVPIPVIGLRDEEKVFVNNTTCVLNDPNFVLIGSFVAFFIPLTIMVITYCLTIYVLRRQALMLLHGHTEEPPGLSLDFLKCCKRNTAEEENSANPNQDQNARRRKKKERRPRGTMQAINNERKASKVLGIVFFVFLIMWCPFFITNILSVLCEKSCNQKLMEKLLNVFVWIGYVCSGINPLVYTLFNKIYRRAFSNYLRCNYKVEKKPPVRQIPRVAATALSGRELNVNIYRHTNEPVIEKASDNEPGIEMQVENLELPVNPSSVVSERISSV
Briefly: Binding test, displacement of [3H]-mesulergine, cloned human receptors expressed in 3T3 cells. The settings on record: cloned human receptor in 3T3 cells; [3H]-mesulergine displacement; read-out: Binding pKi 5HT2C (converted). How it is done: (§1) The tests are carried out using cloned human receptors expressed in 3T3 cells according to the protocols described in Stam et al "Genomic organization, coding sequence and functional expression of human 5-HT2 and 5-HT1A receptor genes" - European Journal of Pharmacology - Molecular Pharmacology Section 227: 153-162 (1993) and Stam et al "Genomic organisation and functional expression of the gene encoding the human serotonin 5-HT2C receptor" - European Journal of Pharmacology - Molecular Pharmacology Section 269: 339-348 (1994).
Background: Displacement assays read how much labelled ligand stays bound in the presence of the test substance.

For assay [4], the target named is T3, human 5-HT2A receptors (Homo sapiens, UniProt P28223).
T3 construct: expressed in transfected cells; host or cells: 3T3 cells
T3 sequence (P28223 whole entry): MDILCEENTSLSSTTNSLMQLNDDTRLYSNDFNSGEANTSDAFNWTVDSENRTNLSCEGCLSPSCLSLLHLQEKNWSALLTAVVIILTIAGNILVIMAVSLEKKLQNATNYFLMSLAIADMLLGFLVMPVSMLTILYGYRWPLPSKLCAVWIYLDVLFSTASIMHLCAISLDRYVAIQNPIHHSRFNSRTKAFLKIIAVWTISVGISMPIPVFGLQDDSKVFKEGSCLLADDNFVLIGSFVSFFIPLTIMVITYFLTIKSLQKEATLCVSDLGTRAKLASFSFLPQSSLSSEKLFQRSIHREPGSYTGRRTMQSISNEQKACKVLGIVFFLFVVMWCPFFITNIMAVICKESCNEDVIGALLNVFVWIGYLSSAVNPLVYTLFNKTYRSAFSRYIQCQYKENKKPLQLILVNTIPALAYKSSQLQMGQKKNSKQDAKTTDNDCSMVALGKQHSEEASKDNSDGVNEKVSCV
The experiment in a line: Binding test, displacement of [3H]-ketanserin, cloned human receptors expressed in 3T3 cells. Conditions: cloned human receptor in 3T3 cells; [3H]-ketanserin displacement; read-out: Binding pKi 5HT2A (converted). As for the experimental part: as §1

Take `COc1ccc2c(c1OC1CCNC1)CCC2.Cl` (racemic) [Compound 10b, (rac)-3-[(2,3-Dihydro-5-methoxy-1H-inden-4-yl)oxy] pyrrolidine hydrochloride]: in assay [1], the “Erection of the penis (MED, mg.kg-1)” value is 1 mg/kg. The “Increase in pellets earned in DRL-72 (MED, mg.kg-1)” value (“Increase in pellets earned” for short) in assay [2] amounted to 10 mg/kg. For the same compound, in assay [3], the Ki is 25.1 nM.
For the compound `COc1ccc2c(c1O[C@H]1CCNC1)CCC2.Cl` [Compound 9a, (S)-(+)-3-[(2,3-Dihydro-5-methoxy-1H-inden-4-yl)oxy]-pyrrolidine hydrochloride], the “Erection of the penis (MED, mg.kg-1)” value in assay [1] came to 0.46 mg/kg. Further, in assay [2], the “Increase in pellets earned” value was 3 mg/kg. In assay [3], the Ki was 10 nM.
For the compound `COc1ccc2c(c1OC1CNC1)CCC2.Cl` [Compound 5d, 3-[(2,3-Dihydro-5-methoxy-1H-inden-4-yl)oxy]-azetidine hydrochloride], the “Erection of the penis (MED, mg.kg-1)” value in assay [1] came out at 1 mg/kg. Besides, the “Increase in pellets earned” value in assay [2] was 10 mg/kg. Moreover, the values for the Ki in assay [4] and in assay [3] were 398 nM and 31.6 nM, respectively.
